pIC50: −log10 of the molar value. Starred links: 1 amine or outer side, 2 acyl side, 3 side chain; linkers in the order of their positions; H or OH if unused. Positions of bridges follow the written chain, without caps; N, C: chain ends. Non-standard residues stand in square brackets, D forms with d. Residues, ends and D or L forms follow the SMILES beside them. *: point of attachment. hPhe(3-Cl-4-CF3) = N[C@@H](CCc1ccc(C(F)(F)F)c(Cl)c1)C(=O)O; NMePhe(4-Me) = CN[C@@H](Cc1ccc(C)cc1)C(=O)O; NMedβ3hAla = C[C@H](CC(=O)[*:2])N(C)[*:1]; NMeGly(cPent) = CN[C@H](C(=O)O)C1CCCC1; NMe3Pal = CN[C@@H](Cc1cccnc1)C(=O)O; NMeCha = CN[C@@H](CC1CCCCC1)C(=O)O; Hyp = O=C(O)[C@@H]1C[C@@H](O)CN1; NMeAhp(2) = CCCCC[C@H](NC)C(=O)O; NMeChg = CN[C@H](C(=O)O)C1CCCCC1; NMeI = CC[C@H](C)[C@H](NC)C(=O)O; NMeD = CN[C@@H](CC(=O)O)C(=O)O; NMeL = CN[C@@H](CC(C)C)C(=O)O; NMeNle = CCCC[C@H](NC)C(=O)O; NMeV = CN[C@H](C(=O)O)C(C)C; d(β3hA) = C[C@@H](N)CC(=O)O; Morpholide = C1CN(*)CCO1; NMeA = CN[C@@H](C)C(=O)O; Piperidide = C1CCN(*)CC1; Pyrrolidide = C1CCN(*)C1; Ac5c = NC1(C(=O)O)CCCC1; Aze = O=C(O)[C@@H]1CCN1; Ac4c = NC1(C(=O)O)CCC1; Sar = CNCC(=O)O
What follows are compounds tested on Human pancreatic cancer cell line AsPC-1 (assay: Measurement of AsPC-1 cell growth inhibition (AsPC-1 CGI)). Conditions: 96 h.
Type: cell-based
In short: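 AsPC-1 cells in 15% FBS RPMI-1640 were exposed to test compound for 96 hours at 37° C, with CellTiter-Glo as endpoint.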

| pIC50 | SMILES |
| --- | --- |
| 6.30 to 7.00 | CC[C@H](C)[C@@H]1NC(=O)[C@H](CC(C)C)N(C)C(=O)C[C@@H](C)N(C)C(=O)[C@H](C(C)C)N(C)C(=O)C2(CCCC2)NC(=O)[C@@H]2CCCN2C(=O)[C@H](CCc2ccc(C(F)(F)F)c(Cl)c2)NC(=O)CN(C)C(=O)[C@H](CC2CCCCC2)N(C)C(=O)[C@@H]2CCN2C(=O)CN(C)C1=O [Compound 1648] (cyclo([Ac5c][NMeV][NMedβ3hAla][NMeL]I[Sar][Aze][NMeCha][Sar][hPhe(3-Cl-4-CF3)]P)) |
| 7.00 to 7.30 | CC[C@H](C)[C@@H]1NC(=O)[C@H](CC(C)C)N(C)C(=O)C[C@@H](C(=O)N(C)C)N(C)C(=O)[C@H](C(C)C)N(C)C(=O)C2(CCCC2)NC(=O)[C@@H]2CCCN2C(=O)[C@H](CCc2ccc(C(F)(F)F)c(Cl)c2)NC(=O)CN(C)C(=O)[C@H](Cc2ccc(C)cc2)N(C)C(=O)[C@@H]2CCN2C(=O)[C@H](C)N(C)C1=O [Compound 1653] ([NMeL]I[NMeA][Aze][NMePhe(4-Me)][Sar][hPhe(3-Cl-4-CF3)]P[Ac5c][NMeV][NMeD]-NMe2; lactam N-11) |
| 7.00 to 7.30 | CC[C@H](C)[C@@H]1NC(=O)[C@H](CC(C)C)N(C)C(=O)C[C@@H](C)NC(=O)[C@H]([C@@H](C)CC)N(C)C(=O)C2(CCCC2)NC(=O)[C@@H]2CCCN2C(=O)[C@H](CCc2ccc(C(F)(F)F)c(Cl)c2)NC(=O)CN(C)C(=O)[C@H](CC2CCCCC2)N(C)C(=O)[C@@H]2CCN2C(=O)[C@H](C)N(C)C1=O [Compound 1654] (cyclo([Ac5c][NMeI][d(β3hA)][NMeL]I[NMeA][Aze][NMeCha][Sar][hPhe(3-Cl-4-CF3)]P)) |
| 6.30 to 7.00 | CC[C@H](C)[C@@H]1NC(=O)[C@H](CC(C)C)N(C)C(=O)C[C@@H](C(=O)N2CCCC2)N(C)C(=O)[C@H](C(C)C)N(C)C(=O)C2(CCCC2)NC(=O)[C@@H]2CCCN2C(=O)[C@H](CCc2ccc(C(F)(F)F)c(Cl)c2)NC(=O)CN(C)C(=O)[C@H](CC2CCCCC2)N(C)C(=O)[C@@H]2CCN2C(=O)CN(C)C1=O [Compound 1670] ([NMeL]I[Sar][Aze][NMeCha][Sar][hPhe(3-Cl-4-CF3)]P[Ac5c][NMeV][NMeD]-Pyrrolidide; lactam N-11) |
| 7.30 to 7.70 | CC[C@H](C)[C@@H]1NC(=O)[C@H](CC(C)C)N(C)C(=O)C[C@@H](C(=O)N(C)C)N(C)C(=O)[C@H](C2CCCCC2)N(C)C(=O)C2(CCCC2)NC(=O)[C@@H]2CCCN2C(=O)[C@H](CCc2ccc(C(F)(F)F)c(Cl)c2)NC(=O)CN(C)C(=O)[C@H](CC2CCCCC2)N(C)C(=O)[C@@H]2CCN2C(=O)[C@H](C)N(C)C1=O [Compound 1675] ([NMeL]I[NMeA][Aze][NMeCha][Sar][hPhe(3-Cl-4-CF3)]P[Ac5c][NMeChg][NMeD]-NMe2; lactam N-11) |
| 7.30 to 7.70 | CC[C@H](C)[C@@H]1NC(=O)[C@H](CC(C)C)N(C)C(=O)C[C@@H](C(=O)N2CCCC2)N(C)C(=O)[C@H](C2CCCC2)N(C)C(=O)C2(CCCC2)NC(=O)[C@@H]2CCCN2C(=O)[C@H](CCc2ccc(C(F)(F)F)c(Cl)c2)NC(=O)CN(C)C(=O)[C@H](CC2CCCCC2)N(C)C(=O)[C@@H]2CCN2C(=O)[C@H](C)N(C)C1=O [Compound 1679] ([NMeL]I[NMeA][Aze][NMeCha][Sar][hPhe(3-Cl-4-CF3)]P[Ac5c][NMeGly(cPent)][NMeD]-Pyrrolidide; lactam N-11) |
| 7.30 to 7.70 | CC[C@H](C)[C@@H]1NC(=O)[C@H](CC(C)C)N(C)C(=O)C[C@@H](C(=O)N(C)C)N(C)C(=O)[C@H](C2CCCCC2)N(C)C(=O)C2(CCCC2)NC(=O)[C@@H]2CCCN2C(=O)[C@H](CCc2ccc(C(F)(F)F)c(Cl)c2)NC(=O)CN(C)C(=O)[C@H](Cc2ccc(C)cc2)N(C)C(=O)[C@@H]2CCN2C(=O)[C@H](C)N(C)C1=O [Compound 1685] ([NMeL]I[NMeA][Aze][NMePhe(4-Me)][Sar][hPhe(3-Cl-4-CF3)]P[Ac5c][NMeChg][NMeD]-NMe2; lactam N-11) |
| 6.30 to 7.00 | CC[C@H](C)[C@@H]1NC(=O)[C@H](CC(C)C)N(C)C(=O)C[C@@H](C(=O)N2CCCC2)N(C)C(=O)[C@H](C2CCCCC2)N(C)C(=O)C2(CCCC2)NC(=O)[C@H](Cc2cccnc2)N(C)C(=O)[C@H](CCc2ccc(C(F)(F)F)c(Cl)c2)NC(=O)CN(C)C(=O)[C@H](CC2CCCCC2)N(C)C(=O)CN(C)C(=O)CN(C)C1=O [Compound 1693] ([NMeL]I[Sar][Sar][NMeCha][Sar][hPhe(3-Cl-4-CF3)][NMe3Pal][Ac5c][NMeChg][NMeD]-Pyrrolidide; lactam N-11) |
| 7.00 to 7.30 | CC[C@H](C)[C@@H]1NC(=O)[C@H](CC(C)C)N(C)C(=O)C[C@@H](C)N(C)C(=O)[C@H](C2CCCC2)N(C)C(=O)C2(CCCC2)NC(=O)[C@@H]2CCCN2C(=O)[C@H](CCc2ccc(C(F)(F)F)c(Cl)c2)NC(=O)CN(C)C(=O)[C@H](CC2CCCCC2)N(C)C(=O)[C@@H]2CCN2C(=O)[C@H](C)N(C)C1=O [Compound 1717] (cyclo([Ac5c][NMeGly(cPent)][NMedβ3hAla][NMeL]I[NMeA][Aze][NMeCha][Sar][hPhe(3-Cl-4-CF3)]P)) |
| 7.00 to 7.30 | CCO[C@@H]1C[C@H]2C(=O)NC3(CCCC3)C(=O)N(C)[C@@H](CC(C)C)C(=O)N(C)[C@H](C(=O)N3CCCC3)CC(=O)N(C)[C@@H](CC(C)C)C(=O)N[C@@H]([C@@H](C)CC)C(=O)N(C)CC(=O)N(C)CC(=O)N(C)[C@@H](CC3CCCCC3)C(=O)N(C)CC(=O)N[C@@H](CCc3ccc(C(F)(F)F)c(Cl)c3)C(=O)N2C1 [Compound 1748] ([NMeL]I[Sar][Sar][NMeCha][Sar][hPhe(3-Cl-4-CF3)][Hyp](Et)[Ac5c][NMeL][NMeD]-Pyrrolidide; lactam N-11) |
| 6.30 to 7.00 | CC[C@H](C)[C@@H]1NC(=O)[C@H](CC(C)C)N(C)C(=O)C[C@@H](C(=O)N2CCOCC2)N(C)C(=O)[C@H](C(C)C)N(C)C(=O)C2(CCCC2)NC(=O)[C@@H]2CCCN2C(=O)[C@H](CCc2ccc(C(F)(F)F)c(Cl)c2)NC(=O)CN(C)C(=O)[C@H](CC2CCCCC2)N(C)C(=O)[C@@H]2CCN2C(=O)CN(C)C1=O [Compound 1758] ([NMeL]I[Sar][Aze][NMeCha][Sar][hPhe(3-Cl-4-CF3)]P[Ac5c][NMeV][NMeD]-Morpholide; lactam N-11) |

| SMILES | pIC50 |
| --- | --- |
| CC[C@H](C)[C@@H]1NC(=O)[C@H](CC(C)C)N(C)C(=O)C[C@@H](C(=O)N2CCCCC2)N(C)C(=O)[C@H](CC(C)C)N(C)C(=O)C2(CCCC2)NC(=O)[C@@H]2CCCN2C(=O)[C@H](CCc2ccc(C(F)(F)F)c(Cl)c2)NC(=O)CN(C)C(=O)[C@H](CC2CCCCC2)N(C)C(=O)[C@@H]2CCN2C(=O)[C@H](C)N(C)C1=O [Compound 1657] ([NMeL]I[NMeA][Aze][NMeCha][Sar][hPhe(3-Cl-4-CF3)]P[Ac5c][NMeL][NMeD]-Piperidide; lactam N-11) | 6.30 to 7.00 |
| CC[C@H](C)[C@@H]1NC(=O)[C@H](CC(C)C)N(C)C(=O)C[C@@H](C(=O)N2CCCCC2)N(C)C(=O)[C@H](C(C)C)N(C)C(=O)C2(CCC2)NC(=O)[C@@H]2CCCN2C(=O)[C@H](CCc2ccc(C(F)(F)F)c(Cl)c2)NC(=O)CN(C)C(=O)[C@H](CC2CCCCC2)N(C)C(=O)[C@@H]2CCN2C(=O)[C@H](C)N(C)C1=O [Compound 1672] ([NMeL]I[NMeA][Aze][NMeCha][Sar][hPhe(3-Cl-4-CF3)]P[Ac4c][NMeV][NMeD]-Piperidide; lactam N-11) | 6.30 to 7.00 |
| CCCCC[C@H]1C(=O)N[C@@H]([C@@H](C)CC)C(=O)N(C)[C@@H](C)C(=O)N2CC[C@H]2C(=O)N(C)[C@@H](CC2CCCCC2)C(=O)N(C)CC(=O)N[C@@H](CCc2ccc(C(F)(F)F)c(Cl)c2)C(=O)N2CCC[C@H]2C(=O)NC2(CCCC2)C(=O)N(C)[C@@H](C(C)C)C(=O)N(C)[C@H](C(=O)N2CCCCC2)CC(=O)N1C [Compound 1705] ([NMeAhp(2)]I[NMeA][Aze][NMeCha][Sar][hPhe(3-Cl-4-CF3)]P[Ac5c][NMeV][NMeD]-Piperidide; lactam N-11) | 6.30 to 7.00 |
| CCCC[C@H]1C(=O)N(C)CC(=O)N[C@@H](CCc2ccc(C(F)(F)F)c(Cl)c2)C(=O)N2CCC[C@H]2C(=O)NC2(CCCC2)C(=O)N(C)[C@@H](C(C)C)C(=O)N(C)[C@H](C(=O)N2CCCCC2)CC(=O)N(C)[C@@H](CC(C)C)C(=O)N[C@@H]([C@@H](C)CC)C(=O)N(C)[C@@H](C)C(=O)N2CC[C@H]2C(=O)N1C [Compound 1712] ([NMeL]I[NMeA][Aze][NMeNle][Sar][hPhe(3-Cl-4-CF3)]P[Ac5c][NMeV][NMeD]-Piperidide; lactam N-11) | 6.30 to 7.00 |
| CC[C@H](C)[C@@H]1NC(=O)[C@H](CC(C)C)N(C)C(=O)C[C@@H](C(=O)N2CCCCC2)N(C)C(=O)[C@H]([C@@H](C)CC)N(C)C(=O)C2(CCCC2)NC(=O)[C@@H]2CCCN2C(=O)[C@H](CCc2ccc(C(F)(F)F)c(Cl)c2)NC(=O)CN(C)C(=O)[C@H](CC2CCCCC2)N(C)C(=O)[C@@H]2CCN2C(=O)[C@H](C)N(C)C1=O [Compound 1722] ([NMeL]I[NMeA][Aze][NMeCha][Sar][hPhe(3-Cl-4-CF3)]P[Ac5c][NMeI][NMeD]-Piperidide; lactam N-11) | 7.30 to 7.70 |
| CC[C@H](C)[C@@H]1NC(=O)[C@H](CC(C)C)N(C)C(=O)C[C@@H](C(=O)N2CCCCC2)N(C)C(=O)[C@H]([C@@H](C)CC)N(C)C(=O)C2(CCCC2)NC(=O)[C@@H]2CCCN2C(=O)[C@H](CCc2ccc(C(F)(F)F)c(Cl)c2)NC(=O)CN(C)C(=O)[C@H](Cc2ccc(C)cc2)N(C)C(=O)[C@@H]2CCN2C(=O)[C@H](C)N(C)C1=O [Compound 1727] ([NMeL]I[NMeA][Aze][NMePhe(4-Me)][Sar][hPhe(3-Cl-4-CF3)]P[Ac5c][NMeI][NMeD]-Piperidide; lactam N-11) | 7.30 to 7.70 |
| CC[C@H](C)[C@@H]1NC(=O)[C@H](CC(C)C)N(C)C(=O)C[C@@H](C(=O)N2CCCCC2)N(C)C(=O)[C@H](C(C)C)N(C)C(=O)C2(CCCC2)NC(=O)[C@@H]2CCCN2C(=O)[C@H](CCc2ccc(C(F)(F)F)c(Cl)c2)NC(=O)CN(C)C(=O)[C@H](C(C)C)N(C)C(=O)[C@@H]2CCN2C(=O)[C@H](C)N(C)C1=O [Compound 1737] ([NMeL]I[NMeA][Aze][NMeV][Sar][hPhe(3-Cl-4-CF3)]P[Ac5c][NMeV][NMeD]-Piperidide; lactam N-11) | 6.30 to 7.00 |

— patent publication US12371454B2, “Cyclic peptide compound having Kras inhibitory action” (priority 2019, dated 2025)
